# Laboratory results: ChEMBL document CHEMBL1143550, “A structural screening approach to ketoamide-based inhibitors of cathepsin K” (Bioorg Med Chem Lett, 2005)
# Experiments:
# Cathepsin S = Cathepsin S (Homo sapiens, UniProt P25774); assay: Inhibitory concentration against human cathepsin S by fluorescence assay using 10 uM Cbz-Val-Val-Arg-AMC
# Procathepsin L = Procathepsin L (Homo sapiens, UniProt P07711); assay: Inhibitory concentration against human cathepsin L by fluorescence assay using 5 uM Cbz-Phe-Arg-AMC
# Pro-cathepsin H = biological target: T1, Pro-cathepsin H (Homo sapiens, UniProt P09668); assay: Inhibitory concentration against human cathepsin H by fluorescence assay using 50 uM L-Arg-b-naphthalamide
# T1 sequence (P09668 whole entry): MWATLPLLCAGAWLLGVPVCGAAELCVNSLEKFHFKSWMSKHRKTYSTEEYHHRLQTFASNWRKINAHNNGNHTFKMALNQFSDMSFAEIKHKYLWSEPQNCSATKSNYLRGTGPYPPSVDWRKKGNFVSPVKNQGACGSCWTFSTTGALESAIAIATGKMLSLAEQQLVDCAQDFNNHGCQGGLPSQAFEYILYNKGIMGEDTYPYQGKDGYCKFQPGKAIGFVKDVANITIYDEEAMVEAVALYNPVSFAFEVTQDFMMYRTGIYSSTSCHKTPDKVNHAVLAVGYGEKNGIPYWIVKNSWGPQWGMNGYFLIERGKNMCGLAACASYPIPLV
# Cathepsin K = biological target: T2, Cathepsin K (Homo sapiens, UniProt P43235); assay: Inhibitory concentration against human cathepsin K
# T2 sequence (P43235 whole entry): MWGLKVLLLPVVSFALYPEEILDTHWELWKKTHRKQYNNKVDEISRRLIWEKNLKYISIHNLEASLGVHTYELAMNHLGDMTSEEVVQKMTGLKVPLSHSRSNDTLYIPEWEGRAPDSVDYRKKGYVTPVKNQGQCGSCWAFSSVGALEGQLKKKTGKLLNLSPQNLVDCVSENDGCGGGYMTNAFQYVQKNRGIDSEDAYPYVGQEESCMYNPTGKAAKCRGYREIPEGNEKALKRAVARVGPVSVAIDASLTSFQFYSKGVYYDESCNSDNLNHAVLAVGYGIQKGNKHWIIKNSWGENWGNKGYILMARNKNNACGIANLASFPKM
# Cathepsin L2 = biological target: T3, Cathepsin L2 (Homo sapiens, UniProt O60911); assay: Inhibitory concentration against human cathepsin V by fluorescence assay using 2 uM Cbz-Phe-Arg-AMC
# T3 sequence (O60911 whole entry): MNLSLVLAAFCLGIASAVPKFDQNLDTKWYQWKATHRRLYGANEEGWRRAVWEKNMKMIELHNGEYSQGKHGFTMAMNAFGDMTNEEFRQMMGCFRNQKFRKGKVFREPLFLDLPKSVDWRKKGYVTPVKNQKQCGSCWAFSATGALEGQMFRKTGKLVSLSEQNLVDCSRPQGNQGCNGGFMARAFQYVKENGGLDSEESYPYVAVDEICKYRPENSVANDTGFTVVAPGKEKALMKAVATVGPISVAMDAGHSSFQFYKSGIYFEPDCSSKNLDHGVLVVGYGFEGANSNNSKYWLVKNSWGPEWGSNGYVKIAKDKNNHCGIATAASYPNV
# Cathepsin B = Cathepsin B (Homo sapiens, UniProt P07858); assay: Inhibitory concentration against human cathepsin B by fluorescence assay using 10 uM Cbz-Phe-Arg-AMC
# [1] = Equilibrium solubility in fasted state-simulated intestinal fluid at pH 6.8 was determined; type: ADME
# [2] = Oral bioavailability in rat (dose 5 mg/kg p.o.); conditions: in vivo
# [3] = Steady state volume of distribution after intravenous administration of 2.5 mg/kg in rats was determined; type: ADME, organism-based; parameters: dose 2.5 mg/kg, route intravenous; conditions: rat, in vivo, read-out: Vss
# [4] = Total clearance after intravenous administration of […] mg/kg in rats was determined; type: ADME, organism-based; conditions: rat, in vivo, 2.5 mg/kg, read-out: C1
# [5] = Half-life after intravenous administration of […] mg/kg in rats was determined; type: ADME, organism-based; conditions: rat, in vivo, 2.5 mg/kg
# [6] = solubility in fasted state stimulated intestinal fluid (pH6.8); type: ADME; conditions: rat, fasted state simulated intestinal fluid, pH 6.8
# Procathepsin L, sequence (P07711 whole entry): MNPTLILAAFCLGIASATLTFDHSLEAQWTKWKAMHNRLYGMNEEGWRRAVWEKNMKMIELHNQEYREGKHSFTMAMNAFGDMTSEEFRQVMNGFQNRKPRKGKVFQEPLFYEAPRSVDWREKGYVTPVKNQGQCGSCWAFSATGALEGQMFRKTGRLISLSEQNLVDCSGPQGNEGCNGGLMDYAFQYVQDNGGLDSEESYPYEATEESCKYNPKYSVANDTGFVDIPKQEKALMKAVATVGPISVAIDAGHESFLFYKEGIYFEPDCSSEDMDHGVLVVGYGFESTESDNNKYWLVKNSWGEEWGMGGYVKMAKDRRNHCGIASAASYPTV
# Cathepsin S, sequence (P25774 whole entry): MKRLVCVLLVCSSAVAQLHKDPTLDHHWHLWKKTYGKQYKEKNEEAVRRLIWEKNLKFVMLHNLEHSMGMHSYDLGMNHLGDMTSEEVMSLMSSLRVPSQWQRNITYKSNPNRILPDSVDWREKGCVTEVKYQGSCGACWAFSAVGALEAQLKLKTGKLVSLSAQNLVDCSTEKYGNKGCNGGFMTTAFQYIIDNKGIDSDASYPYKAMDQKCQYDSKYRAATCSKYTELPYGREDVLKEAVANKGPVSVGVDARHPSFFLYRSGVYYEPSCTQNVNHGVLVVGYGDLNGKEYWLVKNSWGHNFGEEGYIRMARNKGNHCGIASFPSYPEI
IC50 (Cathepsin S),IC50 (Procathepsin L),IC50 (Pro-cathepsin H),IC50 (Cathepsin K),IC50 (Cathepsin L2),IC50 (Cathepsin B),solubility thermodynamic [1],bioavailability [2],Vd [3],clearance [4],half-life [5],solubility [6],Compound
30 nM,1700 nM,> 13000 nM,5.7 nM,180 nM,12000 nM,,,,,,,CCCC[C@H](NC(=O)OC1C2(C)CCC(C2)C1(C)C)C(=O)C(=O)N[C@H](C)c1ccccc1 (some centres undefined)
18 nM,150 nM,> 13000 nM,2.5 nM,29 nM,1400 nM,800 µg/mL,25%,1.3 L/kg,48 mL/min/kg,62 min,,CCCC[C@H](NC(=O)O[C@@H]1C(=O)NCC1(C)C)C(=O)C(=O)N[C@H](C)c1ccccc1
290 nM,6800 nM,> 13000 nM,190 nM,2000 nM,> 13000 nM,,,,,,,CCCC[C@H](NC(=O)OC1C[C@H](C)C[C@@H](C)C1)C(=O)C(=O)N[C@H](C)c1ccccc1 (some centres undefined)
79 nM,660 nM,> 2000 nM,32 nM,340 nM,> 2000 nM,,,,,,,CCCC[C@H](NC(=O)O[C@H]1CCCc2ccccc21)C(=O)C(=O)N[C@H](C)c1ccccc1
280 nM,460 nM,> 13000 nM,100 nM,290 nM,> 13000 nM,,,,,,,CCCC[C@H](NC(=O)O[C@H]1CCc2ccccc21)C(=O)C(=O)N[C@H](C)c1ccccc1
19 nM,1000 nM,> 13000 nM,26 nM,190 nM,> 13000 nM,,,,,,,CCCC[C@H](NC(=O)OC1CC2CCC1C2)C(=O)C(=O)N[C@H](C)c1ccccc1 (some centres undefined)
13 nM,410 nM,> 500 nM,3 nM,79 nM,> 500 nM,,0%,3.4 L/kg,460 mL/min/kg,11 min,240 µg/mL,CCCC[C@H](NC(=O)O[C@@H]1C(=O)OCC1(C)C)C(=O)C(=O)N[C@H](C)c1ccccc1
16 nM,2600 nM,> 5000 nM,7.2 nM,390 nM,> 5000 nM,,,,,,,CCCC[C@H](NC(=O)OC1C2CC3CC(C2)CC1C3)C(=O)C(=O)N[C@H](C)c1ccccc1 (some centres undefined)
63 nM,4400 nM,> 13000 nM,350 nM,2800 nM,> 13000 nM,,,,,,,CCCC[C@H](NC(=O)O[C@@H]1C[C@H](C)C[C@H](C)C1)C(=O)C(=O)N[C@H](C)c1ccccc1
